Assays:
[1] = biological target: human JAK1 (a.a. 837-1142) (Homo sapiens, UniProt P23458); assay: In vitro JAK kinase assay (HTRF, phosphorylation of biotinylated peptide), JAK1; format: biochemical; conditions: Table F; 1 mM ATP
Procedure, shortened: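 Phosphorylation of a biotinylated peptide was run at room temperature for 1 hour using the N-terminally His-tagged JAK1 kinase domain (837-1142) from insect cells. After an EDTA stop, Eu-Py20 and SA-APC gave an HTRF read; values are binned potency ranges.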

JAK2 (a.a. 828-1132) = biological target: T1, JAK2 (a.a. 828-1132) (Homo sapiens, UniProt O60674); assay: In vitro JAK kinase assay (HTRF, phosphorylation of biotinylated peptide), JAK2; format: biochemical; conditions: Table F; 1 mM ATP
T1 construct: JAK2 (a.a. 828-1132); His tag (N)
T1 sequence (O60674 828-1132): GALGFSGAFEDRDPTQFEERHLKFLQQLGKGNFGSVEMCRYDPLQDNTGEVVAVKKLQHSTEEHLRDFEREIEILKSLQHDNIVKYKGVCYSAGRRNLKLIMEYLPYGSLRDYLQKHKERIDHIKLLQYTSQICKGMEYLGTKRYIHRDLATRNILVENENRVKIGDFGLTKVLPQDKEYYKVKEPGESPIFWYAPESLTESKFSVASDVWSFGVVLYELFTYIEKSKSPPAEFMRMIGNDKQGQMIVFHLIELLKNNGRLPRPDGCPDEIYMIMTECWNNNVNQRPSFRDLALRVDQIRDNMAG
Procedure, shortened: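 HTRF detection (Eu-Py20, SA-APC, 40 min) of biotinylated-peptide phosphorylation, following a 1 hour room-temperature reaction quenched with 45 mM EDTA. Enzymes: insect-cell-expressed N-terminal His-tagged JAK1 (837-1142) and JAK2 (828-1132) catalytic domains. Activities reported in ranged categories.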

human JAK1 (a.a. 837-1142), sequence (P23458 849-1154): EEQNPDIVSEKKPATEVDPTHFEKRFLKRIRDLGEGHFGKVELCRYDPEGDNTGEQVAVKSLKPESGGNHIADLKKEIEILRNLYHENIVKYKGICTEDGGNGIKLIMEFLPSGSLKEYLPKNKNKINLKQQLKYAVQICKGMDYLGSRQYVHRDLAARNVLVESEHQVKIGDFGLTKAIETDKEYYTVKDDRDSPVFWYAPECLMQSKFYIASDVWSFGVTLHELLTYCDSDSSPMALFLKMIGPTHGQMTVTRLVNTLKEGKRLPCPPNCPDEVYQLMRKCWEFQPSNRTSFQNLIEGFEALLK

SMILES | IC50 [1] [nM] | IC50 (JAK2 (a.a. 828-1132)) [nM]
CC(C)[C@H](C)NC(=O)N1CCN([C@H]2C[C@@](CC#N)(n3cc(-c4ncnc5[nH]ccc45)cn3)C2)CC1 [Example 111, 4-{cis-3-(cyanomethyl)-3-[4-(7H-pyrrolo[2,3-d]pyrimidin-4-yl)-1H-pyrazol-1-yl]cyclobutyl}-N-[(1S)-1,2-dimethylpropyl]piperazine-1-carboxamide] | 10 to 25 | > 100
CNC(=O)N1CCN([C@H]2C[C@](CC#N)(n3cc(-c4ncnc5[nH]ccc45)cn3)C2)CC1 [Example 112, 4-{trans-3-(cyanomethyl)-3-[4-(7H-pyrrolo[2,3-d]pyrimidin-4-yl)-1H-pyrazol-1-yl]cyclobutyl}-N-methylpiperazine-1-carboxamide] | 10 to 25 | 25 to 100
C[C@@H](NC(=O)N1CCN([C@H]2C[C@](CC#N)(n3cc(-c4ncnc5[nH]ccc45)cn3)C2)CC1)C(F)(F)F [Example 113, 4-{trans-3-(cyanomethyl)-3-[4-(7H-pyrrolo[2,3-d]pyrimidin-4-yl)-1H-pyrazol-1-yl]cyclobutyl}-N-[(1R)-2,2,2-trifluoro-1-methylethyl]piperazine-1-carboxamide] | < 10 | > 100
C[C@H](NC(=O)N1CCN([C@H]2C[C@](CC#N)(n3cc(-c4ncnc5[nH]ccc45)cn3)C2)CC1)C(F)(F)F [Example 114, 4-{trans-3-(cyanomethyl)-3-[4-(7H-pyrrolo[2,3-d]pyrimidin-4-yl)-1H-pyrazol-1-yl]cyclobutyl}-N-[(1S)-2,2,2-trifluoro-1-methylethyl]piperazine-1-carboxamide] | < 10 | > 100
CC[C@H](NC(=O)N1CCN([C@H]2C[C@](CC#N)(n3cc(-c4ncnc5[nH]ccc45)cn3)C2)CC1)C(F)(F)F [Example 115, 4-{trans-3-(cyanomethyl)-3-[4-(7H-pyrrolo[2,3-d]pyrimidin-4-yl)-1H-pyrazol-1-yl]cyclobutyl}-N-[(1S)-1-(trifluoromethyl)propyl]piperazine-1-carboxamide] | < 10 | > 100
N#CC[C@]1(n2cc(-c3ncnc4[nH]ccc34)cn2)C[C@H](N2CCN(C(=O)N3CCC[C@@H]3C(F)(F)F)CC2)C1 [Example 116, [trans-1-[4-(7H-pyrrolo[2,3-d]pyrimidin-4-yl)-1H-pyrazol-1-yl]-3-(4-{[(2R)-2-(trifluoromethyl)pyrrolidin-1-yl]carbonyl}piperazin-1-yl)cyclobutyl]acetonitrile] | 25 to 100 | > 100
N#CC[C@]1(n2cc(-c3ncnc4[nH]ccc34)cn2)C[C@H](N2CCN(C(=O)N3CCC[C@H]3C(F)(F)F)CC2)C1 [Example 117, [trans-1-[4-(7H-pyrrolo[2,3-d]pyrimidin-4-yl)-1H-pyrazol-1-yl]-3-(4-{[(2S)-2-(trifluoromethyl)pyrrolidin-1-yl]carbonyl}piperazin-1-yl)cyclobutyl]acetonitrile] | 25 to 100 | > 100
CN(C)/C(=N\C#N)N1CCN([C@H]2C[C@](CC#N)(n3cc(-c4ncnc5[nH]ccc45)cn3)C2)CC1 [Example 118, N′-cyano-4-{trans-3-(cyanomethyl)-3-[4-(7H-pyrrolo[2,3-d]pyrimidin-4-yl)-1H-pyrazol-1-yl]cyclobutyl}-N,N-dimethylpiperazine-1-carboximidamide] | 10 to 25 | 25 to 100
CS(=O)(=O)N1CCN([C@H]2C[C@](CC#N)(n3cc(-c4ncnc5[nH]ccc45)cn3)C2)CC1 [Example 119, {trans-3-[4-(methylsulfonyl)piperazin-1-yl]-1-[4-(7H-pyrrolo[2,3-d]pyrimidin-4-yl)-1H-pyrazol-1-yl]cyclobutyl}acetonitrile] | < 10 | 10 to 25
CC(C)OC(=O)N1CCN([C@H]2C[C@](CC#N)(n3cc(-c4ncnc5[nH]ccc45)cn3)C2)CC1 [Example 120, isopropyl 4-{trans-3-(cyanomethyl)-3-[4-(7H-pyrrolo[2,3-d]pyrimidin-4-yl)-1H-pyrazol-1-yl]cyclobutyl}piperazine-1-carboxylate] | < 10 | 25 to 100
CC(C)(C)NCc1cc(OC2CCN([C@H]3C[C@](CC#N)(n4cc(-c5ncnc6[nH]ccc56)cn4)C3)CC2)nc(C(F)(F)F)c1 [Example 127, {trans-3-(4-{[4-[(tert-butylamino)methyl]-6-(trifluoromethyl)pyridin-2-yl]oxy}piperidin-1-yl)-1-[4-(7H-pyrrolo[2,3-d]pyrimidin-4-yl)-1H-pyrazol-1-yl]cyclobutyl}acetonitrile] | < 10 | 25 to 100
CC(C)(C)NCc1cc(OC2CCN([C@H]3C[C@@](CC#N)(n4cc(-c5ncnc6[nH]ccc56)cn4)C3)CC2)nc(C(F)(F)F)c1 [Example 128, {cis-3-(4-{[4-[(tert-butylamino)methyl]-6-(trifluoromethyl)pyridin-2-yl]oxy}piperidin-1-yl)-1-[4-(7H-pyrrolo[2,3-d]pyrimidin-4-yl)-1H-pyrazol-1-yl]cyclobutyl}acetonitrile] | 25 to 100 | > 100
N#CC[C@]1(n2cc(-c3ncnc4[nH]ccc34)cn2)C[C@H](N2CCC(Oc3cc(CN)cc(C(F)(F)F)n3)CC2)C1 [Example 129, {trans-3-(4-{[4-(aminomethyl)-6-(trifluoromethyl)pyridin-2-yl]oxy}piperidin-1-yl)-1-[4-(7H-pyrrolo[2,3-d]pyrimidin-4-yl)-1H-pyrazol-1-yl]cyclobutyl}acetonitrile] | < 10 | 25 to 100
CN(C)Cc1cc(OC2CCN([C@H]3C[C@](CC#N)(n4cc(-c5ncnc6[nH]ccc56)cn4)C3)CC2)nc(C(F)(F)F)c1 [Example 130, {trans-3-(4-{[4-[(dimethylamino)methyl]-6-(trifluoromethyl)pyridin-2-yl]oxy}piperidin-1-yl)-1-[4-(7H-pyrrolo[2,3-d]pyrimidin-4-yl)-1H-pyrazol-1-yl]cyclobutyl}acetonitrile] | < 10 | > 100
CCNCc1cc(OC2CCN([C@H]3C[C@](CC#N)(n4cc(-c5ncnc6[nH]ccc56)cn4)C3)CC2)nc(C(F)(F)F)c1 [Example 131, {trans-3-(4-{[4-[(ethylamino)methyl]-6-(trifluoromethyl)pyridin-2-yl]oxy}piperidin-1-yl)-1-[4-(7H-pyrrolo[2,3-d]pyrimidin-4-yl)-1H-pyrazol-1-yl]cyclobutyl}acetonitrile] | < 10 | 25 to 100
CNCc1cc(OC2CCN([C@H]3C[C@](CC#N)(n4cc(-c5ncnc6[nH]ccc56)cn4)C3)CC2)nc(C(F)(F)F)c1 [Example 132, {trans-3-(4-{[4-[(methylamino)methyl]-6-(trifluoromethyl)pyridin-2-yl]oxy}piperidin-1-yl)-1-[4-(7H-pyrrolo[2,3-d]pyrimidin-4-yl)-1H-pyrazol-1-yl]cyclobutyl}acetonitrile] | < 10 | 25 to 100
CN(C)Cc1cc(C(=O)N2CCN([C@H]3C[C@@](CC#N)(n4cc(-c5ncnc6[nH]ccc56)cn4)C3)CC2)cc(C(F)(F)F)c1 [Example 135, {cis-3-{4-[3-[(dimethylamino)methyl]-5-(trifluoromethyl)benzoyl]piperazin-1-yl}-1-[4-(7H-pyrrolo[2,3-d]pyrimidin-4-yl)-1H-pyrazol-1-yl]cyclobutyl}acetonitrile] | 10 to 25 | > 100
CN(C)Cc1cc(C#N)cc(C(=O)N2CCN([C@H]3C[C@](CC#N)(n4cc(-c5ncnc6[nH]ccc56)cn4)C3)CC2)c1 [Example 136, 3-[(4-{trans-3-(cyanomethyl)-3-[4-(7H-pyrrolo[2,3-d]pyrimidin-4-yl)-1H-pyrazol-1-yl]cyclobutyl}piperazin-1-yl)carbonyl]-5-[(dimethylamino)methyl]benzonitrile] | < 10 | 25 to 100
CN(C)Cc1cc(C#N)cc(OC2CCN([C@H]3C[C@](CC#N)(n4cc(-c5ncnc6[nH]ccc56)cn4)C3)CC2)c1 [Example 137, 3-[(1-{trans-3-(cyanomethyl)-3-[4-(7H-pyrrolo[2,3-d]pyrimidin-4-yl)-1H-pyrazol-1-yl]cyclobutyl}piperidin-4-yl)oxy]-5-[(dimethylamino)methyl]benzonitrile] | 10 to 25 | > 100
CN(C)Cc1cc(OC2CCN([C@H]3C[C@](CC#N)(n4cc(-c5ncnc6[nH]ccc56)cn4)C3)CC2)cc(C(F)(F)F)c1 [Example 138, {trans-3-{4-[3-[(Dimethylamino)methyl]-5-(trifluoromethyl)phenoxy]piperidin-1-yl}-1-[4-(7H-pyrrolo[2,3-d]pyrimidin-4-yl)-1H-pyrazol-1-yl]cyclobutyl}acetonitrile] | 10 to 25 | > 100
CCN(CC)Cc1cc(OC2CCN([C@H]3C[C@](CC#N)(n4cc(-c5ncnc6[nH]ccc56)cn4)C3)CC2)cc(C(F)(F)F)c1 [Example 139, {trans-3-{4-[3-[(diethylamino)methyl]-5-(trifluoromethyl)phenoxy]piperidin-1-yl}-1-[4-(7H-pyrrolo[2,3-d]pyrimidin-4-yl)-1H-pyrazol-1-yl]cyclobutyl}acetonitrile] | < 10 | > 100
CN(C)Cc1cc(OC2CCN([C@H]3C[C@](CC#N)(n4cc(-c5ncnc6[nH]ccc56)cn4)C3)CC2)cc(C(F)F)c1 [Example 140, {trans-3-(4-{3-(difluoromethyl)-5-[(dimethylamino)methyl]phenoxy}piperidin-1-yl)-1-[4-(7H-pyrrolo[2,3-d]pyrimidin-4-yl)-1H-pyrazol-1-yl]cyclobutyl}acetonitrile] | 10 to 25 | > 100
